The source of these data is article PMC5509375, “Oxidative stress induced in E. coli by the human antimicrobial peptide LL-37” (PLoS Pathogens, 2017).

In brackets after ≈: the same amount, converted by molar mass. Like-named read-outs stand apart in the source and are kept apart here. Ends that are not written are not given here.

The subject of assay [1] is E. coli MG1655. Kind of assay: MIC assay, broth microdilution, aerobic growth. In kind it is cell-based. The note with it: E. coli MG1655, EZRDM, 30°C, 6 hr, two-fold serial dilutions, reproducible to the same factor of two. The method, then:
(§1) We have measured MICs in aerobic and anaerobic fermentation conditions using a series of two-fold dilutions for the four natural AMPs in the same rich, chemically defined EZRDM medium at 30°C (Table 1). The MIC in anaerobic fermentation conditions is 4-fold higher for LL-37 and 8-fold higher for melittin. […] For cecropin A and for indolicidin, the MIC is the same in aerobic and fermentation conditions. Evidently the activity against E. coli of some, but not all, natural AMPs is enhanced by the presence of oxygen. For LL-37, the primary focus of this study, we also measured the MIC in conditions enabling anaerobic respiration (no oxygen, but supplemented with 10 mM KNO3; Table 2).
The aerobic MIC values for the various AMPs (Table 1) were determined using the broth microdilution method as previously described. Two-fold serial dilutions of LL-37 in 1× EZRDM were performed in separate rows of a polystyrene 96-well plate, with each plate containing an inoculum of E. coli MG1655. The inoculum was a 1:20 dilution from a bulk culture at midlog phase (OD600 = 0.5) grown at 30°C. The plate was incubated at 30°C and shaken at 200 rpm in a Lab-Line Orbital Environ Shaker (model 3527) for 6 hr. The MIC value was taken as the lowest concentration for which no growth was discernible (<0.05 OD) after 6 hr.
For orientation: Broth dilution looks for growth in wells or tubes with falling amounts of substance.

The subject of assay [2] is E. coli MG1655. Kind of assay: MIC assay, anaerobic fermentation (oxygen scavenged with PCA/PCD). The class given is cell-based. The note with it: E. coli MG1655, EZRDM, 30°C, 6 hr, PCA 10 mM / PCD 100 nM. On the procedure:
as §1
Anaerobic MIC values (Table 1) were measured on a 96-well plate that was sealed with plastic wrap. Cells were incubated in EZRDM containing protocatechuic acid (PCA) at 10 mM and protocatechuate 3,4-dioxygenase (PCD) at 100 nM to scavenge oxygen. The plate was incubated at 30°C for 6 hr, followed by OD measurements.

Assay [3] relates to E. coli MG1655. Further details: method as in 2 sources, one per row (each row's own in cited_ref): ref 20 = [20]; PMID 25561551; doi:10.1073/pnas.1417703112; 20 Choi H , Yang Z , Weisshaar JC . Single-cell, real-time detection of oxidative stress induced in Escherichia coli by the antimicrobial peptide CM15 . Proc Natl Acad Sci U S A . 2015; 112 ( 3 ): E3 ||| ref 22 = [22]; PMID 26493221; doi:10.1021/acschembio.5b00547; 22 Choi H , Chakraborty S , Liu R , Gellman SH , Weisshaar JC . Single-Cell, Time-Resolved Antimicrobial Effects of a Highly Cationic, Random Nylon-3 Copolymer on Live Escherichia coli . ACS Chem Biol. As to conditions: cited from earlier work.

The test system of assay [4] is E. coli MG1655. As to conditions: cited from earlier work. On the procedure: Table 1 Antimicrobial peptides and their MICs for E. coli MG1655 in aerobic growth vs anaerobic fermentation in EZRDM at 30°C. | column: MIC (μM) ^1 / Aerobic || Additional evidence that the onset of strong CellROX* fluorescence coincides with entry of LL-37 into the periplasm comes from two-color imaging experiments using CellROX Green and a red fluorescent variant of the peptide, Rh-LL-37. […] Under aerobic growth conditions, at t = 0 we flowed 25 μM CellROX Green plus 8 μM Rh-LL-37 across plated E. coli cells. As before, wea ... || To test for the importance of LL-37 stereochemistry on the magnitude of oxidative effects, we repeated the CellROX* assay in aerobic conditions using 4 μM of the all-D stereoisomer of LL-37. […] In addition, our earlier work found the same MIC for D- and L-LL-37 [19].

Assay [5] deals with MG1655 E. coli. In kind it is cell-based. The note with it: 8 μM Rh-LL-37 + 25 μM CellROX Green, aerobic, 59 cells from three repeats.

With `CC[C@H](C)[C@H](N)C(=O)N[C@@H](CC(C)C)C(=O)N1CCC[C@H]1C(=O)N[C@@H](Cc1c[nH]c2ccccc12)C(=O)N[C@@H](CCCCN)C(=O)N[C@@H](Cc1c[nH]c2ccccc12)C(=O)N1CCC[C@H]1C(=O)N[C@@H](Cc1c[nH]c2ccccc12)C(=O)N[C@@H](Cc1c[nH]c2ccccc12)C(=O)N1CCC[C@H]1C(=O)N[C@@H](Cc1c[nH]c2ccccc12)C(=O)N[C@@H](CCCNC(=N)N)C(=O)N[C@@H](CCCNC(=N)N)C(N)=O` [Indolicidin], the “MIC (μM) Aerobic” value in assay [1] is 32 µM (≈ 61 µg/mL). In addition, the “MIC (μM) Fermentation” value in assay [2] was determined as 32 µM (≈ 61 µg/mL).
Consider CM15, for which, in assay [3] (E. coli MG1655, EZRDM, 30°C, anaerobic fermentation, CM15 from earlier study), the “MIC (μM) Fermentation” value was 100 µM. For the same compound, in assay [3] (E. coli, fold higher in anaerobic), the “MIC in anaerobic (fermentation) relative to aerobic growth” value is 20 fold. Also, in assay [4] (E. coli MG1655, EZRDM, 30°C, aerobic, CM15 from earlier study), the “MIC (μM) Aerobic” value was 5 µM.
Consider “KWKLFKKIEKVGQNIRDGIIKAGPAVAVVGQATQIAK-NH2 [Cecropin A]”, for which the “MIC (μM) Aerobic” value in assay [1] came out at 0.9 µM. For the same compound, in assay [2], the “MIC (μM) Fermentation” value was found to be 0.9 µM.
For Rhodamine B-LL-37 [Rh-LL-37], the “MIC compared with unlabeled L-LL-37” value in assay [4] (MG1655 E. coli) is listed as “the same MIC”. In assay [5], the “Timing of CellROX* fluorescence relative to periplasmic Rh-LL-37 fluorescence” value was “rise on the same time scale”.
